Test results taken from patent publication US20120132797A1, “MEANS AND METHODS FOR DIAGNOSING THYROID DISORDERS” (BASF SE, priority 2009, published 2012).

Test system: Wistar (Crl:WI(Han)) rats
Assay: Mass spectrometry-based plasma metabolite profiling of rats treated with known inducers of thyroid function impairment
Assay type: in vivo, rat
Conditions: ratio of group medians vs controls
Source text: At the beginning of the study the animals were 10-11 weeks old. Each dose group in the studies consisted of five rats per sex, and was compared with controls (10 rats per sex). […] The dose levels were chosen to show the typical overt (high dose) and slight (low dose) toxicological symptoms of the substances as described in the literature or in BASF internal study reports.
Blood samples were withdrawn from the retro-orbital sinus in all rats under isoflurane anesthesia on study days 7, 14 and 28 after a fasting period of 16-20 hours.
For mass spectrometry-based metabolite profiling analysis, plasma samples were extracted by a proprietary method which delivers a polar and a non-polar fraction. For GC-MS analysis, the non-polar fraction was treated with methanol under acidic conditions to yield the fatty acid methyl esters. Both fractions were further derivatised with Omethyl-hydroxyamine hydrochloride and pyridine to convert oxo groups to Omethyloximes and subsequently with a silylating agent before analysis.
In LC-MS/MS analysis, both fractions were reconstituted in appropriate solvent mixtures. HPLC was performed by gradient elution on reversed phase separation columns. For mass spectrometric detection metanomics proprietary technology was applied, which allows target and high sensitivity MRM (Multiple Reaction Monitoring) profiling in parallel to a full screen analysis. […] Moreover, several hundred additional analytes giving a fingerprint of the sample were included in the methods.
Following comprehensive analytical validation steps, the data for each analyte were normalized against data from pool samples. These samples were run in parallel through the whole process to account for process variability.
The sex- and day-stratified heteroscedastic t-test (“Welch test”) was applied to compare treated groups with respective controls. p-Values and ratios of corresponding group medians were collected as metabolic profiles and fed into a database.

[1] = female rats, fh7 (study day 7), Table 1
[2] = female rats, fh14 (study day 14), Table 1
[3] = female rats, fh28 (study day 28), Table 1
[4] = male rats, mh7 (study day 7), Table 2
[5] = male rats, mh7 (study day 7), Table 4
[6] = male rats, mh14 (study day 14), Table 2
[7] = male rats, mh14 (study day 14), Table 4
[8] = male rats, mh28 (study day 28), Table 2
[9] = male rats, mh28 (study day 28), Table 4

Compound: Cn1cc[nH]c1=S [Methimazole]
- 5-O-Methylsphingosine [1]: 3.55
- Asparagine [1]: 1.17
- Behenic acid (C22:0) [1]: 2.08
- Citrate [1]: 0.83
- Docosahexaenoic acid (C22:cis[4,7,10,13,16]6) [1]: 2.16
- Glycine [1]: 1.14
- Ketoleucine [1]: 0.86
- Lysophosphatidylcholine (C18:2) [1]: 1.52
- Phosphatidylcholine (C16:1, C18:2) [1]: 1.89
- Phosphatidylcholine (C18:2, C20:4) [1]: 1.39
- Pyruvate [1]: 0.62
- Tricosanoic acid (C23:0) [1]: 2.05
- erythro-Sphingosine [1]: 2.56
- threo-Sphingosine [1]: 2.46
- Sphingomyelin (d18:1, C16:0) (female rats, fh7 (study day 7), Table 1, first listing): 1.89
- Sphingomyelin (d18:1, C16:0) (female rats, fh7 (study day 7), Table 1, second listing): 1.45
- 5-O-Methylsphingosine [2]: 3.80
- Asparagine [2]: 1.12
- Behenic acid (C22:0) [2]: 2.63
- Citrate [2]: 0.76
- Docosahexaenoic acid (C22:cis[4,7,10,13,16]6) [2]: 1.32
- Glycine [2]: 1.14
- Ketoleucine [2]: 0.80
- Lysophosphatidylcholine (C18:2) [2]: 1.57
- Phosphatidylcholine (C16:1, C18:2) [2]: 2.40
- Phosphatidylcholine (C18:2, C20:4) [2]: 1.25
- Pyruvate [2]: 0.53
- Tricosanoic acid (C23:0) [2]: 2.54
- erythro-Sphingosine [2]: 3.21
- threo-Sphingosine [2]: 3.21
- Sphingomyelin (d18:1, C16:0) (female rats, fh14 (study day 14), Table 1, first listing): 2.54
- Sphingomyelin (d18:1, C16:0) (female rats, fh14 (study day 14), Table 1, second listing): 1.44
- 5-O-Methylsphingosine [3]: 2.83
- Asparagine [3]: 1.12
- Behenic acid (C22:0) [3]: 2.03
- Citrate [3]: 0.84
- Docosahexaenoic acid (C22:cis[4,7,10,13,16]6) [3]: 1.22
- Glycine [3]: 1.28
- Ketoleucine [3]: 0.78
- Lysophosphatidylcholine (C18:2) [3]: 1.31
- Phosphatidylcholine (C16:1, C18:2) [3]: 2.21
- Phosphatidylcholine (C18:2, C20:4) [3]: 1.33
- Pyruvate [3]: 0.79
- Tricosanoic acid (C23:0) [3]: 1.96
- erythro-Sphingosine [3]: 2.44
- threo-Sphingosine [3]: 2.37
- Sphingomyelin (d18:1, C16:0) (female rats, fh28 (study day 28), Table 1, first listing): 1.77
- Sphingomyelin (d18:1, C16:0) (female rats, fh28 (study day 28), Table 1, second listing): 1.31
- 3-O-Methylsphingosine [4]: 3.47
- 5-O-Methylsphingosine [4]: 3.57
- 14-Methyl-Pentadecanoic acid [4]: 1.13
- 17-Methyloctadecanoic acid [4]: 1.36
- Arginine [4]: 1.09
- Cholesterol [4]: 1.98
- Citrate [4]: 0.69
- Dihom-gamma-Linolenic acid (C20:cis[8,11,14]3) [4]: 2.38
- Lignoceric acid (C24:0) [4]: 2.12
- Phytosphingosine [4]: 2.08
- Sphingomyelin (d18:1, C16:0) [4]: 2.24
- Tricosanoic acid (C23:0) [4]: 1.93
- alpha-Tocopherol [4]: 1.76
- erythro-Sphingosine [4]: 2.92
- threo-Sphingosine [4]: 3.02
- Glutamate (male rats, mh7 (study day 7), Table 2, first listing): 0.61
- Glutamate (male rats, mh7 (study day 7), Table 2, second listing): 0.75
- Behenic acid (C22:0) [5]: 2.02
- Cholesterol [5]: 1.69
- Citrate [5]: 0.69
- Cytosine [5]: 0.65
- Galactose, lipid fraction [5]: 1.60
- Glycerol phosphate [5]: 2.09
- Glycine [5]: 1.42
- Lignoceric acid (C24:0) [5]: 2.12
- Mannose [5]: 1.06
- Nervonic acid C24:(cis[15]1) [5]: 2.59
- Phospha-tidylcholine (C18:0, 18:2) [5]: 1.11
- Sphingomyelin (d18:1, C16:0) [5]: 2.24
- Stearic acid (C18:0) [5]: 1.34
- Threonic acid [5]: 0.72
- dihomo-gamma-Linolenic acis (C20:cis[8,11,14]3) [5]: 2.38
- erythro-Sphingosine [5]: 2.92
- myo-Inositol-2-phosphate [5]: 2.55
- threo-Sphingosine [5]: 3.02
- 3-O-Methylsphingosine [6]: 3.85
- 5-O-Methylsphingosine [6]: 4.15
- 14-Methyl-Pentadecanoic acid [6]: 0.85
- 17-Methyloctadecanoic acid [6]: 0.92
- Arginine [6]: 1.09
- Cholesterol [6]: 2.31
- Citrate [6]: 0.69
- Dihom-gamma-Linolenic acid (C20:cis[8,11,14]3) [6]: 3.22
- Lignoceric acid (C24:0) [6]: 2.82
- Phytosphingosine [6]: 2.92
- Sphingomyelin (d18:1, C16:0) [6]: 2.27
- Tricosanoic acid (C23:0) [6]: 2.69
- alpha-Tocopherol [6]: 2.66
- erythro-Sphingosine [6]: 3.71
- threo-Sphingosine [6]: 3.78
- Glutamate (male rats, mh14 (study day 14), Table 2, first listing): 0.57
- Glutamate (male rats, mh14 (study day 14), Table 2, second listing): 0.49
- Behenic acid (C22:0) [7]: 3.03
- Cholesterol [7]: 1.93
- Citrate [7]: 0.69
- Cytosine [7]: 0.46
- Galactose, lipid fraction [7]: 1.46
- Glycerol phosphate [7]: 1.67
- Glycine [7]: 1.25
- Lignoceric acid (C24:0) [7]: 2.82
- Mannose [7]: 1.04
- Nervonic acid C24:(cis[15]1) [7]: 3.00
- Phospha-tidylcholine (C18:0, 18:2) [7]: 1.28
- Sphingomyelin (d18:1, C16:0) [7]: 2.27
- Stearic acid (C18:0) [7]: 1.40
- Threonic acid [7]: 0.69
- dihomo-gamma-Linolenic acis (C20:cis[8,11,14]3) [7]: 3.22
- erythro-Sphingosine [7]: 3.71
- myo-Inositol-2-phosphate [7]: 2.35
- threo-Sphingosine [7]: 3.78
- 3-O-Methylsphingosine [8]: 4.55
- 5-O-Methylsphingosine [8]: 3.40
- 14-Methyl-Pentadecanoic acid [8]: 0.54
- 17-Methyloctadecanoic acid [8]: 0.45
- Arginine [8]: 1.14
- Cholesterol [8]: 2.03
- Citrate [8]: 0.73
- Dihom-gamma-Linolenic acid (C20:cis[8,11,14]3) [8]: 2.02
- Lignoceric acid (C24:0) [8]: 2.16
- Phytosphingosine [8]: 3.04
- Sphingomyelin (d18:1, C16:0) [8]: 1.92
- Tricosanoic acid (C23:0) [8]: 2.50
- alpha-Tocopherol [8]: 2.18
- erythro-Sphingosine [8]: 3.47
- threo-Sphingosine [8]: 4.30
- Glutamate (male rats, mh28 (study day 28), Table 2, first listing): 0.46
- Glutamate (male rats, mh28 (study day 28), Table 2, second listing): 0.40
- Behenic acid (C22:0) [9]: 3.01
- Cholesterol [9]: 1.56
- Citrate [9]: 0.73
- Cytosine [9]: 0.39
- Galactose, lipid fraction [9]: 1.53
- Glycerol phosphate [9]: 1.46
- Glycine [9]: 0.98
- Lignoceric acid (C24:0) [9]: 2.16
- Mannose [9]: 0.87
- Nervonic acid C24:(cis[15]1) [9]: 2.23
- Phospha-tidylcholine (C18:0, 18:2) [9]: 1.35
- Sphingomyelin (d18:1, C16:0) [9]: 1.92
- Stearic acid (C18:0) [9]: 1.16
- Threonic acid [9]: 0.69
- dihomo-gamma-Linolenic acis (C20:cis[8,11,14]3) [9]: 2.02
- erythro-Sphingosine [9]: 3.47
- myo-Inositol-2-phosphate [9]: 1.85
- threo-Sphingosine [9]: 4.30
